# Reference: patent US20240182422A1, “PREPARATION METHOD OF QUINOLINE DERIVATIVE COMPOUNDS” (ABIVAX, priority 2021, published 2024)
# Assays:
# [1] = USP <711> / Ph. Eur. 2.9.3 pharmacopeial dissolution profile (apparent dissolution test, paddle apparatus); assay type: physicochemical; conditions: for solubility (percentage dissolved) at 45 min: 50 mg drug substance, 900 mL 0.25% CTAB in 0.1 M HCl, paddle USP type II 100 rpm
# Experimental: Pharmacopeial (USP <711>, Ph. Eur. 2.9.3) dissolution profiles of the drug substance were established.
# A dissolution experiment evaluates the rate and extent that a compound forms a solution under carefully controlled conditions and using paddle dissolution apparatus fulfilling USP <711>, Ph. Eur. 2.9.3 requirements.
# The dissolution profiles of 50 mg from a native ABX464 and one milled ABX 464 (8000 rpm) drug substance (DS) in the dissolution media have been compared.
# The dissolution conditions and materials were as follows: • Equipment • Class A glassware • Analytical scale • Automatic pipette • UPLC system consisting of a binary or quaternary pump, an automated injector, a thermostated column oven, and a UV or DAD detector controlled by the Waters Empower® software • AT 7 smart (Sotax) or equivalent dissolution apparatus with USP type II paddle • Chemicals • water (dissolution medium) Demineralized water purified by Milli_Q Millipore (type II) • Demineralized water purified by Milli_Q Millipore • syringe filter Spartan 30 mm HPLC-Certified syringe Filter, 0.2 μm, RC (regenerated cellulose) • Acetonitrile Biosolve (UPLC grade) (ACN) • Cetyl trimethylammonium bromide (CTAB) • Hydrochloric acid (HCl) 1M (AVS tritinorm) • Formic acid (LCMS grade) • Chromatographic conditions • Column: Acquity UPLC BEH C18, 2.1 mm ID*50 mm, 1.7 μm pore size or equivalent • Mobile phase A: 0.1% (v/v) Formic acid in water • Mobile phase B: ACN • Isocratic mode 35% A/65% B • Flow rate 0.3 mL/min • Analytical run time: 5 min • Volume injection: 5 μL • Detection: UV at 220 nm • Autosampler: room temperature • Column temperature: 40° C. • Needle wash: Water/ACN (50/50 v/v) • Diluent • Dissolution medium: 0.25% CTAB in 0.1 M HCl. Transfer 25 g of CTAB into a 10 000 mL volumetric flask, add 1 000 mL of HCl 1M and dilute to volume with water (different amounts and volumes may be used as long as the final concentration remains the same) • Solutions
# Accurately weight 22.2 mg of the drug substance into a 100 mL volumetric flask, dissolve in about 5 mL ACN and dilute to volume with diluent. • Dissolution conditions • Dissolution medium: 0.25% CTAB in 0.1 M HCl • Temperature: 37° C. +/−0.5° C. • Agitation: 100 rpm +/−1 rpm • Type of agitation: Paddle (USP type II) • Volume of dissolution medium: 900 mL • Sampling time: 5, 10, 15, 30, 45, 60, 75 and 90 min • Sampling volume 5 ml (discard the first 3 ml) • Test on 6 vessels • place the sample (50 mg) into each dissolution vessel
# The non-corrected dissolved percentages were calculated as follows: […]
# The corrected dissolved percentage were calculated as follows: […]
# [2] = Particle size distribution measurement (WET method, laser diffraction, Mastersizer); assay type: physicochemical; conditions: PSD wet method, dispersant demineralised water, Triton X100
# Text: Particle size distribution (PSD), summarized by D10, D50 and D90 values, were obtained by using the WET method, the details of which are as follows: • Material used: • Equipment: Mastersizer 300 (hydro MV) • Dispersant: demineralised water • Surfactant: Triton X100 • No saturation • Operational parameters: • optical model: Particles type (MS3000 only) no-spherical • Mie: • refractive index of particles: 1.443 • absorption index of particles: 0.1 • refractive index of the dispersant: 1.33 • Measurement: • Measurement time: 10 seconds • Measurement time of the background: 10 seconds • Stirrer speed: 1200 rpm +/−400 • Obscuration range: 5-19% • Delay time measurement: 1-5 minutes • Model: standard • Analysis precision: normal • Sample preparation: • Weight about 100 mg of product in a glass beaker • Add 2-4 drops of surfactant • Complete with the dispersant until the 20 mL mark of the 50 mL graduated beaker • Shake for 3 seconds to 60 seconds • Put in the external ultrasound cell • Sonication duration: 2-3minutes
# After the milling step 5, the milled sample thus obtained from example 4 was characterized by measurement of its particle size distribution (see table 3 below) according to the method as defined above.
# For comparison purposes, the measurement of the particle size distribution has also been carried out for the native 8-chloro-N-(4-(trifluoromethoxy)phenyl)quinolin-2-amine (Form I) obtained from step 4 of example 4 above (i.e. product obtained from example 4 before milling).
# [3] = listed as Native (not milled) compound
Structure (SMILES),"solubility (percentage dissolved) at 45 min ([1]; 37° C., 45 min) [%]","solubility compared to the native compound (FIG. 2 dissolution profile) ([1]; milled at 8000 rpm vs native, 0.25% CTAB in 0.1 M HCl, 37° C.)","increase of solubility (percentage dissolved) of milled compound compared to the native compound at 45 min ([1]; same dissolution conditions, 45 min, milled (8000 rpm) vs native)",Particle size distribution D10 [2] [μm],Particle size distribution D50 [2] [μm],Particle size distribution D90 [2] [μm],Particle size distribution D10 ([2]; listed as milled ABX464) [μm],Particle size distribution D50 ([2]; listed as milled ABX464) [μm],Particle size distribution D90 ([2]; listed as milled ABX464) [μm],"Particle size distribution D10 [2, 3] [μm]","Particle size distribution D50 [2, 3] [μm]","Particle size distribution D90 [2, 3] [μm]"
"FC(F)(F)Oc1ccc(Nc2ccc3cccc(Cl)c3n2)cc1 [milled compound, 8-chloro-N-(4-(trifluoromethoxy)phenyl)quinolin-2-amine]",95.4,improved solubility,about 38.1%,6.8,50.0,122.0,6.8,50.0,122.0,,,
"FC(F)(F)Oc1ccc(Nc2ccc3cccc(Cl)c3n2)cc1 [native compound, 8-chloro-N-(4-(trifluoromethoxy)phenyl)quinolin-2-amine]",57.3,,,,,,,,,24.5,164.0,444.0
